Reference: patent US20060167035A1, “Quinoline derivative, its use, production and pharmaceutical agents containing the latter” (priority 2004, published 2006)
pIC50: −log10 of the molar value.

biological target: T1, recombinant EphB4 kinase (Homo sapiens, UniProt P54760); assay: Test System for EphB4 (HTRF kinase assay); type: biochemical; conditions: polyGluAlaTyr substrate, 2 μM ATP, HTRF readout, read-out: IC50 of EphB4 kinase inhibition
T1 construct: purchased ProQinase GmbH, Freiburg, Germany
T1 sequence (P54760 16-987): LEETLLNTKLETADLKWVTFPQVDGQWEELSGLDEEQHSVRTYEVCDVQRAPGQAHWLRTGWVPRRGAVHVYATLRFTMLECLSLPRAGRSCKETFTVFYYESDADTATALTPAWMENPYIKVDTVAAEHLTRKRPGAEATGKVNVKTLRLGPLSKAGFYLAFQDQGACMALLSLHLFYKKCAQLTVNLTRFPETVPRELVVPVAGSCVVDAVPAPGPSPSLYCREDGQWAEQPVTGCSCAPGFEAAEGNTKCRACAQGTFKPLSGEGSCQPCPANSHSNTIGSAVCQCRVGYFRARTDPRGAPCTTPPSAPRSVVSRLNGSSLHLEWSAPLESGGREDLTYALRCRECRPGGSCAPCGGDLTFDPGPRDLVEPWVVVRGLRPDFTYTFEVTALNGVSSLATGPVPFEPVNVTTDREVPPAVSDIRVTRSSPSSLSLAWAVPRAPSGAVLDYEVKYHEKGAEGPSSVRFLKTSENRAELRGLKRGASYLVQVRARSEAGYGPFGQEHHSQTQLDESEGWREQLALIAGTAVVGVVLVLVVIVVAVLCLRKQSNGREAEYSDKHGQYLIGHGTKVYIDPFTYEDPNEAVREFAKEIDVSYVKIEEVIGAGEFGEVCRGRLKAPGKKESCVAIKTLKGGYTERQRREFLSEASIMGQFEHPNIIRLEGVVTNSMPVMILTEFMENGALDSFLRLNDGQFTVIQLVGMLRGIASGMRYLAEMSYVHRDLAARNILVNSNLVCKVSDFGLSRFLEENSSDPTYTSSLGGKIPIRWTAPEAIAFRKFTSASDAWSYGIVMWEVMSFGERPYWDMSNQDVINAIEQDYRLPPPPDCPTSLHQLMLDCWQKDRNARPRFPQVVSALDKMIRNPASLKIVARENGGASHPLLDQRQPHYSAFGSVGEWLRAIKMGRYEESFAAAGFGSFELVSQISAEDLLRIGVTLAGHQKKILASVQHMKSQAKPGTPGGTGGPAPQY
Method: A mixture that consists of 20 ng/ml of recombinant EphB4 kinase (ProQinase GmbH, Freiburg, Germany), 2.67 μg/ml of polyGluAlaTyr, 2 μM of ATP, 25 mmol of HEPES (pH 7.3), 5 mmol of MgCl2, 1 mmol of MnCl2, 2 mmol of DTT, 0.1 mmol of NaVO4, 1% (v/v) of glycerol, 0.02% NP40, EDTA-free protease inhibitors (Complete Roche Company, 1 tablet in 50 ml) is incubated for 10 minutes at 20° C. Test substances are dissolved in 100% DMSO and introduced in a 0.017× volume before the reaction begins. 60 minutes after 1.7× volume of a solution of 50 mmol of Hepes, pH 7.0, 0.2% BSA, 0.14 μg/ml of PT66-Europium, 3.84 μg/ml of SA-XL665, 75 mmol of EDTA is added, the batch is measured in a Discovery HTRF measuring device of the PerkinElmer Company.

Row | Compound | pIC50
1 | Cc1nc2c(ccc3nccc(Nc4cc(O)ccc4C)c32)s1 [Example 2, 4-Methyl-3-(2-methyl-thiazolo[4,5-f]quinolin-9-ylamino)-phenol] | 6.57

same assay, conditions: polyGluAlaTyr substrate, 2 μM ATP, HTRF readout, read-out: IC50 of EphB4 kinase inhibition (upper bound)

Row | Compound | pIC50
2 | Cc1ccc(O)cc1Nc1ccnc2ccc3sccc3c12 [Example 1, 4-Methyl-3-(thieno[3,2-f]quinolin-9-ylamino)-phenol] | > 4.60
3 | Cc1nc2c(ccc3nccc(Nc4cc(O)ccc4C)c32)s1 [Example 2, 4-Methyl-3-(2-methyl-thiazolo[4,5-f]quinolin-9-ylamino)-phenol] | > 4.60
4 | Cc1ccc(O)cc1Nc1ccnc2ccc3ccsc3c12 [Example 3, 4-Methyl-3-(thieno[2,3-f]quinolin-9-ylamino)-phenol] | > 4.60
5 | Cc1ccc(O)cc1Nc1ccnc2ccc3c(c12)CCS3(=O)=O [Example 4, 3-(3,3-Dioxo-2,3-dihydro-1H-3λ^6-thieno[3,2-f]quinolin-9-ylamino)-4-methyl-phenol] | > 4.60

Other lines, results leading:

Row | pIC50 | Compound
6 | > 4.60 | O=S1(=O)CCc2c1ccc1nccc(Nc3cccc(O)c3)c21 [Example 5, 3-(3,3-Dioxo-2,3-dihydro-1H-3λ^6-thieno[3,2-f]quinolin-9-ylamino)-phenol]
7 | > 4.60 | Cc1ccc(Nc2ccnc3ccc4c(c23)CCS4(=O)=O)cc1O [Example 15, 5-(3,3-Dioxo-2,3-dihydro-1H-3λ^6-thieno[3,2-f]quinolin-9-ylamino)-2-methylphenol]
